Laboratory results as given in patent publication US8618111B2, “5-alkynyl-pyrimidines” (Boehringer Ingelheim International GmbH, priority 2010, dated 2013).

Legend:
mTOR = mTOR (Homo sapiens (Human), UniProt P42345); experiment: mTOR kinase activity assay (phosphorylation status of mTOR substrate 4E-BP1; TR-FRET); format: biochemical; conditions: GFP-4E-BP1 substrate, 8 μM ATP
Description: mTOR Kinase Activity Assay
(Phosphorylation Status of mTOR Substrate 4E-BP1; TR-FRET)
The mTOR kinase TR-FRET assay utilizes a physiologically relevant protein substrate for mTOR (4E-BP1, labeled with an acceptor fluorophore (Green Fluorescent Protein) and paired with a corresponding Tb-labeled phospho-specific antibody.
The assay itself is divided into two phases: the reaction phase and the detection phase. In the reaction phase, all components required for the kinase reaction are added to the well, including the labeled protein substrate. The reaction is allowed to incubate for 60 minutes. After the reaction, EDTA is added to stop the kinase reaction, and terbium-labeled antibody is added to bind phosphorylated product. Because the terbium chelate is stable at the EDTA concentrations used to stop a kinase assay, the antibody and EDTA can be pre-mixed prior to addition to minimize pipetting steps. Binding of the terbium labeled antibody to the fluorophore-labeled phosphorylated product brings the terbium and GFP into proximity, resulting in an increase in TR-FRET. In the presence of an inhibitor, formation of phosphorylated product is reduced, and the TR-FRET value is decreased.
• GFP-4E-BP1 substrate; Invitrogen order no. PV4759 • Lanthascreen Tb-anti-p4E-BP1 (pThr46) Antibody Kit; Invitrogen order no. PV4758 • FRAP1 (mTOR) kinase; Invitrogen order no.
400 nM GFP-4E-BP1, 8 μM ATP, ˜150 ng/mL mTOR, 50 mM HEPES pH 7.5, 0.01% Polysorbate 20, 1 mM EGTA, 10 mM MnCl2, and variable amounts of test compounds.
Note: Thaw and keep mTOR, the substrate, ATP, and the antibody on ice prior to making working dilutions. Working dilutions of these components can be kept at room temperature for short periods of time the day of use. • 1. Add 2 ml of 5× Assay Buffer to 8 ml water to prepare 10 ml of 1× Assay Buffer, wherein the concentration of 1× Assay Buffer is 50 mM HEPES pH 7.5, 0.01% Polysorbate 20, 1 mM EGTA, and 10 mM MnCl2. • 2. Prepare Antibody/EDTA Solution by first adding 2.75 μl of Tb-anti p4E-BP1 Antibody to 2397 μl of LanthaScreen™ TR-FRET Dilution Buffer. Then, add 100 μl of 0.5 M EDTA. • 3. […] Then, add 1.6 μl of mTOR (0.45 mg/mL). • 4. Prepare ATP Solution by adding 3.2 μl of 10 mM ATP to 1997 μl of 1× Assay Buffer. Serial Dilution of Inhibitors (16 Point Curve)
Inhibitors are serially diluted in DMSO, then diluted to a 4× working concentration with 1× Assay Buffer. • 1. Dispense 40 μl of DMSO to two adjacent columns of a 96 well plate per compound (e.g. columns 1 and 2). • 2. Add 10 μl of inhibitor stock (10 mM) to the first well of the first column (A1) and mix. • 3. Remove 10 μl from A1 and transfer to the adjacent well in the next column (B1) and mix. • 4. Remove 10 μl from B1 and transfer to the next well in the first column (B2) and mix. • 5. […] Remove 4 μl of diluted compounds and add to 96 μl of 1× Assay Buffer in a 96-well plate making 4× compound dilutions. Kinase Reaction • 1. Add 2.5 μl of 4X compound dilutions to a 384-well plate. • 2. […] Preincubate for […] at RT (shaker). • 5. Add 5 μl of ATP Solution to all wells to start reactions. • 6. Shake the assay plate on a plate shaker for 30 seconds. • 7. Incubate the assay plate for one hour at room temperature (20-25° C.). Stop Step and Fluorescence Detection • 1. Add 10 μl of Antibody/EDTA Solution to each well in columns 1-9. • 2. Shake the assay plate on a plate shaker for 30 seconds. • 3. Incubate the assay plate for one hour at room temperature (20-25° C.). • 4. Measure the GFP (FRET) and terbium (reference) emission signals on a fluorescence plate reader (e.g. Perkin Elmer Envision). Data Analysis • 1. Calculate the emission ratio for each sample by dividing the GFP (FRET) signal by the terbium (reference) signal. • 2.

PI3Kalpha = PI3Kalpha (Homo sapiens (Human), UniProt P42336); experiment: Inhibition of PI3Kalpha-induced PIP-2 phosphorylation (filter-binding assay); format: biochemical; conditions: 33P-ATP
Sequence of PI3Kalpha (P42336 whole entry, species assumed): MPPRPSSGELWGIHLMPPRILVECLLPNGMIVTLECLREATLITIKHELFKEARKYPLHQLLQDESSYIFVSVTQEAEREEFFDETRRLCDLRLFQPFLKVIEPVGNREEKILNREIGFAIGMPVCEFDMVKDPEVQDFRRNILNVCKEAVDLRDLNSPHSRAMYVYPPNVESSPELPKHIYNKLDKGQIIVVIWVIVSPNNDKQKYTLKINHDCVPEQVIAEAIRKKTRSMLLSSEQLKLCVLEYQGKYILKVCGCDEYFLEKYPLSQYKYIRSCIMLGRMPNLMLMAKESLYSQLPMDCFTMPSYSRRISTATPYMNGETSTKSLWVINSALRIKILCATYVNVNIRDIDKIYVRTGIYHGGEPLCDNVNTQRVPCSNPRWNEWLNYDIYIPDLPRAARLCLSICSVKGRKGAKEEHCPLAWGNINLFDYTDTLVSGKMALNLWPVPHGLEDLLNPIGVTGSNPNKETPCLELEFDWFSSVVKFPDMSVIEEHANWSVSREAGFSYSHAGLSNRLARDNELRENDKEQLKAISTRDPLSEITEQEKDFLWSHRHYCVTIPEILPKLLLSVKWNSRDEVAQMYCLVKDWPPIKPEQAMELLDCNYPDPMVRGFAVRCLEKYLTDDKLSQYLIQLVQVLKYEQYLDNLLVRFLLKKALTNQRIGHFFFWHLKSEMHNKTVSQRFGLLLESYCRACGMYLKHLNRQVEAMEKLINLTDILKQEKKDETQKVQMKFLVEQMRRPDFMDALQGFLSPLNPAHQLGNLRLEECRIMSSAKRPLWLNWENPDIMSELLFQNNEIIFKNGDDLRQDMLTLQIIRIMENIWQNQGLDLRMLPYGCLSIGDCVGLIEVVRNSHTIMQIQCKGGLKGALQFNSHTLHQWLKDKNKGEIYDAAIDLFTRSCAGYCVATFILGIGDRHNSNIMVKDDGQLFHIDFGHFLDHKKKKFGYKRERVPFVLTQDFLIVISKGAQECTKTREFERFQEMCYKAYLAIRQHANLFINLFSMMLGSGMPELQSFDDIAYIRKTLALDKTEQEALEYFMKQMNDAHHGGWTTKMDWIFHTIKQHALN
Sequence of PI3Kalpha (P27986 whole entry partner, species assumed): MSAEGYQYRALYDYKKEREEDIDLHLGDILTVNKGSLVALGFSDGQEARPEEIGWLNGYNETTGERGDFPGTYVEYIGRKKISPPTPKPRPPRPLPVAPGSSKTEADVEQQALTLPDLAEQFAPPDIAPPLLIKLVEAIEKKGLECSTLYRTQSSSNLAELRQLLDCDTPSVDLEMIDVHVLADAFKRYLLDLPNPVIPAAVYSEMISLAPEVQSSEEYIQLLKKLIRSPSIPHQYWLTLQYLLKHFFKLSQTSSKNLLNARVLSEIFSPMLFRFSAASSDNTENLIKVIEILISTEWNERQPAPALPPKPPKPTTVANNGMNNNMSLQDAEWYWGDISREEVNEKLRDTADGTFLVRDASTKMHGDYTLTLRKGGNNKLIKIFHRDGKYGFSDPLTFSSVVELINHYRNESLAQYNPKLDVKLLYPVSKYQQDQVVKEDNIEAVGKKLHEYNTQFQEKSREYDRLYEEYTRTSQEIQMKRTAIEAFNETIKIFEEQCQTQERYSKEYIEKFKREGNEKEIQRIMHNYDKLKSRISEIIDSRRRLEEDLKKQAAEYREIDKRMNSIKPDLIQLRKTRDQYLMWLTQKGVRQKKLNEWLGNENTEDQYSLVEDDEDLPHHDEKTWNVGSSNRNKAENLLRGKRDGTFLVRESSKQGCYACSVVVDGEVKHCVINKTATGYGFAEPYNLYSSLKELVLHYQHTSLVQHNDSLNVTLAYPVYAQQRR
Description: Inhibition of PI3Kalpha-Induced PIP-2 Phosphorylation
Method Type: Filter-Binding-Assay
Aliquoted in desired amounts and stored at −80° C. Final assay concentration 25 ng/well.

[1] = system: PC3 (human prostate carcinoma cell line) cells; experiment: PC3 proliferation test; format: cell-based; conditions: PC-3, 72 h, 3 days incubation, DNA dye fluorescence
Description: The test is based on measurement of cellular DNA content via fluorescent dye binding. Because cellular DNA content is highly regulated, it is closely proportional to cell number. The extent of proliferation is determined by comparing cell counts for samples treated with drugs with untreated controls.
PC3 (human prostate carcinoma cell line) cells are sown in microtitre plates and incubated overnight in culture medium at 37° C. and 5% CO2. The test substances are diluted stepwise and added to the cells such that the total volume is 200 μL/well. Cells to which diluent, but not substance, is added serve as controls.

BT474 = BT474 cell assay (EC50); format: cell-based; conditions: Homo sapiens, BT-474; BT474 cells

Sequence of mTOR (P42345 1360-2549): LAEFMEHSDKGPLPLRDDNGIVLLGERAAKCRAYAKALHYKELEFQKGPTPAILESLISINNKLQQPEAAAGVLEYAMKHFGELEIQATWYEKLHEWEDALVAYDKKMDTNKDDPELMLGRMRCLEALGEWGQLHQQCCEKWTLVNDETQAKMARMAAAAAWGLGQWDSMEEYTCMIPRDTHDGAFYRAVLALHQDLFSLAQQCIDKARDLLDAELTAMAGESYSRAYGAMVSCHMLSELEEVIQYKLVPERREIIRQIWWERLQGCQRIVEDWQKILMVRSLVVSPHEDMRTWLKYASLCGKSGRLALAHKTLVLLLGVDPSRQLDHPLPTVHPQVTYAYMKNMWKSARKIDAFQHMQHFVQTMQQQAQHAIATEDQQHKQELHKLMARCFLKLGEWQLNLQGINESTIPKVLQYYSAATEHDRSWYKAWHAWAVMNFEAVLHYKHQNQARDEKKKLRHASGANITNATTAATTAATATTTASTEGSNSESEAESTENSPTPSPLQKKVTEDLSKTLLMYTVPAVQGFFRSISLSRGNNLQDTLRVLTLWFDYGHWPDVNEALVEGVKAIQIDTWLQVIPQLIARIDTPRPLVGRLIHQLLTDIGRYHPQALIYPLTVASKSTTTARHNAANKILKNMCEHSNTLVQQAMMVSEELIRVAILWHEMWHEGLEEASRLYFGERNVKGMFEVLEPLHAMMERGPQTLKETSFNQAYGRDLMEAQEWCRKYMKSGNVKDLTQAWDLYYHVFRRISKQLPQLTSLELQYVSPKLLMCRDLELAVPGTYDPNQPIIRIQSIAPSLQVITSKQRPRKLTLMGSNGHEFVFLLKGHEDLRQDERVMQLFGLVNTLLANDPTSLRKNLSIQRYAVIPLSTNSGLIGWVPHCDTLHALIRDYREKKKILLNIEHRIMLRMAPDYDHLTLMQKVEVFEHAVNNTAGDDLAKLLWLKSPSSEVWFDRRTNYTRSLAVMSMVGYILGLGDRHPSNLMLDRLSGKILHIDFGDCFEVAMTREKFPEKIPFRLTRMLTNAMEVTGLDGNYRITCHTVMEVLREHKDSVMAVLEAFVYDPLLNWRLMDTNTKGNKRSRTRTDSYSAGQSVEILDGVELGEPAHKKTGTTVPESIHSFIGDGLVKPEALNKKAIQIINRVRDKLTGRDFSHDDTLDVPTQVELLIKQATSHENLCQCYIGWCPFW

Structure (SMILES)	IC50 (mTOR) [nM]	IC50 PI3Ka (PI3Kalpha) [nM]	EC50 [1] [nM]	EC50 (BT474) [nM]
CCc1ncnc(N2CCC(CO)CC2)c1C#Cc1ccc(C)nc1 [Example B-72]	70	134	474	–
CCc1ncnc(N2CCC(C)(O)CC2)c1C#Cc1ccc(C)nc1 [Example B-73]	30	84	160	–
Cc1ncnc(N2CCC(O)(C3CCCCC3)CC2)c1C#Cc1ccc(N)nc1 [Example B-74]	30	98	195	–
Cc1ncnc(N2CCC3(CCN(C)C3=O)CC2)c1C#Cc1ccc(N)nc1 [Example B-75]	10	48	92	–
Cc1ncnc(N2CCn3c(C)cnc3C2)c1C#Cc1ccc(N)nc1 [Example B-76]	97	60	233	–
CCc1ncnc(N2CCC3(CCN(C)C3=O)CC2)c1C#Cc1ccc(N)nc1 [Example B-77]	8	67	43	–
CCc1ncnc(N2CCn3c(C)cnc3C2)c1C#Cc1ccc(N)nc1 [Example B-78]	31	72	101	–
Cc1ncnc(N2CCN(CC(C)(C)O)CC2)c1C#Cc1ccc(N)nc1 [Example B-79]	18	53	238	–
Cc1ncnc(N2CCC3(CCN(C)CC3)CC2)c1C#Cc1ccc(N)nc1 [Example B-80]	25	99	161	–
CCc1ncnc(N2CCN(CC(C)(C)O)CC2)c1C#Cc1ccc(N)nc1 [Example B-81]	7	143	71	–
CCc1ncnc(N2CCC3(CC2)CC(=O)NC(=O)C3)c1C#Cc1ccc(N)nc1 [Example B-82]	5	38	77	–
Cc1ncnc(N2CCC3(CCNC3=O)CC2)c1C#Cc1ccc(N)nc1 [Example B-84]	19	32	126	–
CCc1ncnc(N2CCC3(CCNC3=O)CC2)c1C#Cc1ccc(N)nc1 [Example B-85]	30	95	153	–
CCc1ncnc(N2CCC(OC)CC2)c1C#Cc1ccc(NC)nc1 [Example B-86]	9	94	115	–
CCc1ncnc(N2CCC(O)CC2)c1C#Cc1ccc(NC)nc1 [Example B-87]	20	76	104	–
Cc1ncnc(N2CCC(CC(=O)N(C)C)CC2)c1C#Cc1ccc(N)nc1 [Example E-1]	45	54	221	–
COCCNC(=O)CC1CCN(c2ncnc(C)c2C#Cc2ccc(N)nc2)CC1 [Example E-4]	144	66	300	–
CCNC(=O)CC1CCN(c2ncnc(C)c2C#Cc2ccc(N)nc2)CC1 [Example E-5]	58	38	171	–
Cc1ncnc(N2CCC(CC(=O)N3CCOCC3)CC2)c1C#Cc1ccc(N)nc1 [Example E-6]	59	83	358	–
CCN(C)C(=O)CC1CCN(c2ncnc(C)c2C#Cc2ccc(N)nc2)CC1 [Example E-7]	53	44	266	–
CC(=O)NCC1CCN(c2ncnc(C)c2C#Cc2ccc(N)nc2)CC1 [Example F-1]	15	36	135	–

Structure (SMILES)	IC50 (mTOR) [nM]	IC50 PI3Ka (PI3Kalpha) [nM]	EC50 [1] [nM]	EC50 (BT474) [nM]
CCCCCC(=O)NCC1CCN(c2ncnc(C)c2C#Cc2ccc(N)nc2)CC1 [Example F-2]	31	23	344	–
Cc1ncnc(N2CCC(CNC(=O)CC3CCCC3)CC2)c1C#Cc1ccc(N)nc1 [Example F-3]	16	39	335	–
COCCC(=O)NCC1CCN(c2ncnc(C)c2C#Cc2ccc(N)nc2)CC1 [Example F-5]	18	69	141	–
Cc1ncnc(N2CCC(CNC(=O)C3CCCCC3)CC2)c1C#Cc1ccc(N)nc1 [Example F-6]	78	51	277	–
CCc1ncnc(N2CCN(C(=O)NC)CC2)c1C#Cc1ccc(N)nc1 [Example G-1]	84	33	212	–
CCc1ncnc(N2CCN(C(=O)c3ccccn3)CC2)c1C#Cc1ccc(N)nc1 [Example G-2]	90	47	138	–
CCc1ncnc(N2CCN(C(=O)CC#N)CC2)c1C#Cc1ccc(N)nc1 [Example G-3]	91	60	550	–
CCc1ncnc(N2CCN(C(=O)C3CC3)CC2)c1C#Cc1ccc(N)nc1 [Example G-4]	113	46	206	–
CCc1ncnc(N2CCN(C(=O)c3ccccc3)CC2)c1C#Cc1ccc(N)nc1 [Example G-5]	157	110	225	–
CCc1ncnc(N2CCN(C(=O)OC)CC2)c1C#Cc1ccc(N)nc1 [Example G-6]	101	52	106	–
CCc1ncnc(N2CCN(C(=O)c3ccco3)CC2)c1C#Cc1ccc(N)nc1 [Example G-7]	60	37	197	–
Cc1ncnc(N2CCN(C(=O)C3CCC3)CC2)c1C#Cc1ccc(N)nc1 [Example G-8]	64	22	206	–
Cc1ncnc(N2CCN(C(=O)c3ccno3)CC2)c1C#Cc1ccc(N)nc1 [Example G-9]	55	39	310	–
Cc1ccc(C(=O)N2CCN(c3ncnc(C)c3C#Cc3ccc(N)nc3)CC2)o1 [Example G-10]	60	25	221	–
CCc1ncnc(N2CCC3(CCN(C(C)=O)CC3)CC2)c1C#Cc1ccc(N)nc1 [Example G-11]	30	36	55	–
CCc1ncnc(N2CCC3(CCN(C(=O)COC)CC3)CC2)c1C#Cc1ccc(N)nc1 [Example G-12]	32	37	41	–
CCc1ncnc(N2CCC3(CCN(C(=O)NC)CC3)CC2)c1C#Cc1ccc(N)nc1 [Example G-13]	35	50	53	–
CCc1ncnc(N2CCN(C(C)C)CC2)c1C#Cc1ccc(N)nc1 [Example H-6]	15	55	–	72
CCc1ncnc(N2CCC3(CC2)COC3)c1C#Cc1ccc(N)nc1 [Example H-7]	138	97	–	944
CCc1ncnc(N2CCc3ncncc3C2)c1C#Cc1ccc(N)nc1 [Example H-11]	27	50	–	93
